Test [1] has as its target Dual specificity protein kinase CLK4 (Homo sapiens) (UniProt Q9HAZ1). As to the kind of experiment: Inhibition of wild-type human partial length CLK4 (R135 to K481 residues) expressed in bacterial expression system assessed as residual activity at 50 nM by Kinomescan method relative to control.
Test [2] has as its target Dual specificity mitogen-activated protein kinase kinase 7 (Homo sapiens) (UniProt O14733). As to the kind of experiment: Inhibition of wild-type human full length MAP2K7 (M1 to R419 residues) expressed in mammalian expression system assessed as residual activity at 50 nM by Kinomescan method relative to control.
The target of test [3] is Serine/threonine-protein kinase RIO1 (Homo sapiens) (UniProt Q9BRS2). The experiment in a line: Inhibition of full length human RIOK1 (M1 to K568 residues) expressed in bacterial expression system assessed as residual activity at 50 nM by KINOMEscan assay relative to control.
Test [4] addresses Serine/threonine-protein kinase NLK (Homo sapiens) (UniProt Q9UBE8). The experiment in a line: Inhibition of wild-type human full length NLK (M13 to E527 residues) expressed in bacterial expression system assessed as residual activity at 50 nM by Kinomescan method relative to control.
For test [5], the target named is Serine/threonine-protein kinase LATS1 (Homo sapiens) (UniProt O95835). The experiment in a line: Inhibition of wild-type human partial length LATS1 (Q678 to V1130 residues) expressed in bacterial expression system assessed as residual activity at 50 nM by Kinomescan method relative to control.
Test [6] concerns the target Serine/threonine-protein kinase MARK2 (Homo sapiens) (UniProt Q7KZI7). The experiment in a line: Inhibition of wild-type human partial length MARK2 (M1 to R450 residues) expressed in bacterial expression system assessed as residual activity at 50 nM by Kinomescan method relative to control.
The target of test [7] is Receptor tyrosine-protein kinase erbB-2 (Homo sapiens) (UniProt P04626). As to the kind of experiment: Inhibition of wild-type human partial length ERBB2 (K646 to V1225 residues) expressed in mammalian expression system assessed as residual activity at 50 nM by Kinomescan method relative to control.
Test [8] has as its system Phosphatidylinositol 4,5-bisphosphate 3-kinase catalytic subunit alpha isoform (Homo sapiens), P42336 [C420R]. The experiment in a line: Inhibition of human partial length PI3KCA C420R mutant (R108 to N1068 residues) expressed in mammalian expression system assessed as residual activity at 50 nM by Kinomescan method relative to control.
The target of test [9] is Mitogen-activated protein kinase kinase kinase 19 (Homo sapiens) (UniProt Q56UN5). The experiment in a line: Inhibition of wild-type human partial length YSK4 (T1019 to H1328 residues) expressed in mammalian expression system assessed as residual activity at 50 nM by Kinomescan method relative to control.
Test [10] deals with Activin receptor type-1 (Homo sapiens) (UniProt Q04771). The experiment in a line: Inhibition of wild-type human ALK2 (C188 to C509 residues) expressed in bacterial expression system assessed as residual activity at 50 nM by Kinomescan method relative to control.
The target in test [11] is Phosphatidylinositol 4-kinase beta (Homo sapiens) (UniProt Q9UBF8). As to the kind of experiment: Inhibition of wild-type human full length PIK4CB (M1 to M828 residues) expressed in mammalian expression system assessed as residual activity at 50 nM by Kinomescan method relative to control.
Test [12] deals with Serine/threonine-protein kinase ULK3 (Homo sapiens) (UniProt Q6PHR2). The experiment in a line: Inhibition of wild-type human partial length ULK3 (M1 to Q290 residues) expressed in mammalian expression system assessed as residual activity at 50 nM by Kinomescan method relative to control.
Test [13] relates to Phosphatidylinositol 4,5-bisphosphate 3-kinase catalytic subunit alpha isoform (Homo sapiens), P42336 [E542K]. The experiment in a line: Inhibition of human partial length PI3KCA E542K mutant (R108 to N1068 residues) expressed in mammalian expression system assessed as residual activity at 50 nM by Kinomescan method relative to control.
Test [14] has as its target Serine/threonine-protein kinase PknB (Mycobacterium tuberculosis) (UniProt P9WI81). The experiment in a line: Inhibition of wild-type Mycobacterium tuberculosis partial length PKNB (M1 to G279 residues) expressed in mammalian expression system assessed as residual activity at 50 nM by Kinomescan method relative to control.
For test [15], the target named is Platelet-derived growth factor receptor beta (Homo sapiens) (UniProt P09619). As to the kind of experiment: Inhibition of wild-type human partial length PDGFRB (V582 to Y1009 residues) expressed in bacterial expression system assessed as residual activity at 50 nM by Kinomescan method relative to control.
Test [16] addresses Cyclin-dependent kinase 9 (Homo sapiens) (UniProt P50750). As to the kind of experiment: Inhibition of wild-type human full length CDK9 (M1 to F372 residues) expressed in bacterial expression system assessed as residual activity at 50 nM by Kinomescan method relative to control.
Test [17] has as its target Serine/threonine-protein kinase DCLK1 (Homo sapiens) (UniProt O15075). The experiment in a line: Inhibition of wild-type human partial length DCAMKL1 (L270 to A662 residues) expressed in mammalian expression system assessed as residual activity at 50 nM by Kinomescan method relative to control.
In test [18] the target is Tyrosine-protein kinase Yes (Homo sapiens) (UniProt P07947). The experiment in a line: Inhibition of wild-type human partial length YES (T257 to L543 residues) expressed in bacterial expression system assessed as residual activity at 50 nM by Kinomescan method relative to control.
Test [19] deals with Ribosomal protein S6 kinase alpha-6 (Homo sapiens) (UniProt Q9UK32). As to the kind of experiment: Inhibition of human N-terminal RSK4 kinase domain 1 (M1 to E397 residues) expressed in mammalian expression system assessed as residual activity at 50 nM by KINOMEscan assay relative to control.
Test [20] concerns the target Serine/threonine-protein kinase Nek7 (Homo sapiens) (UniProt Q8TDX7). As to the kind of experiment: Inhibition of wild-type human full length NEK7 (M1 to S302 residues) expressed in bacterial expression system assessed as residual activity at 50 nM by Kinomescan method relative to control.
The target in test [21] is Interleukin-1 receptor-associated kinase 3 (Homo sapiens) (UniProt Q9Y616). As to the kind of experiment: Inhibition of wild-type human partial length IRAK3 (V147 to E596 residues) expressed in bacterial expression system assessed as residual activity at 50 nM by Kinomescan method relative to control.
For test [22], the target named is Tyrosine-protein kinase CSK (Homo sapiens) (UniProt P41240). As to the kind of experiment: Inhibition of wild-type human full length CSK (M1 to L450 residues) expressed in bacterial expression system assessed as residual activity at 50 nM by Kinomescan method relative to control.
Test [23] concerns the target Ephrin type-A receptor 2 (Homo sapiens) (UniProt P29317). As to the kind of experiment: Inhibition of wild-type human partial length EPHA2 (T593 to V891 residues) expressed in bacterial expression system assessed as residual activity at 50 nM by Kinomescan method relative to control.
In test [24] the target is Phosphatidylinositol 5-phosphate 4-kinase type-2 gamma (Homo sapiens) (UniProt Q8TBX8). As to the kind of experiment: Inhibition of wild-type human partial length PIP5K2C (M1 to A421 residues) expressed in mammalian expression system assessed as residual activity at 50 nM by Kinomescan method relative to control.

Here are results for two molecules from ChEMBL document CHEMBL4052645, “Discovery of potent and efficacious pyrrolopyridazines as dual JAK1/3 inhibitors” (Bioorg Med Chem Lett, 2017).

Sequence of Platelet-derived growth factor receptor beta (Homo sapiens) (P09619 whole entry, the tested form may be a part): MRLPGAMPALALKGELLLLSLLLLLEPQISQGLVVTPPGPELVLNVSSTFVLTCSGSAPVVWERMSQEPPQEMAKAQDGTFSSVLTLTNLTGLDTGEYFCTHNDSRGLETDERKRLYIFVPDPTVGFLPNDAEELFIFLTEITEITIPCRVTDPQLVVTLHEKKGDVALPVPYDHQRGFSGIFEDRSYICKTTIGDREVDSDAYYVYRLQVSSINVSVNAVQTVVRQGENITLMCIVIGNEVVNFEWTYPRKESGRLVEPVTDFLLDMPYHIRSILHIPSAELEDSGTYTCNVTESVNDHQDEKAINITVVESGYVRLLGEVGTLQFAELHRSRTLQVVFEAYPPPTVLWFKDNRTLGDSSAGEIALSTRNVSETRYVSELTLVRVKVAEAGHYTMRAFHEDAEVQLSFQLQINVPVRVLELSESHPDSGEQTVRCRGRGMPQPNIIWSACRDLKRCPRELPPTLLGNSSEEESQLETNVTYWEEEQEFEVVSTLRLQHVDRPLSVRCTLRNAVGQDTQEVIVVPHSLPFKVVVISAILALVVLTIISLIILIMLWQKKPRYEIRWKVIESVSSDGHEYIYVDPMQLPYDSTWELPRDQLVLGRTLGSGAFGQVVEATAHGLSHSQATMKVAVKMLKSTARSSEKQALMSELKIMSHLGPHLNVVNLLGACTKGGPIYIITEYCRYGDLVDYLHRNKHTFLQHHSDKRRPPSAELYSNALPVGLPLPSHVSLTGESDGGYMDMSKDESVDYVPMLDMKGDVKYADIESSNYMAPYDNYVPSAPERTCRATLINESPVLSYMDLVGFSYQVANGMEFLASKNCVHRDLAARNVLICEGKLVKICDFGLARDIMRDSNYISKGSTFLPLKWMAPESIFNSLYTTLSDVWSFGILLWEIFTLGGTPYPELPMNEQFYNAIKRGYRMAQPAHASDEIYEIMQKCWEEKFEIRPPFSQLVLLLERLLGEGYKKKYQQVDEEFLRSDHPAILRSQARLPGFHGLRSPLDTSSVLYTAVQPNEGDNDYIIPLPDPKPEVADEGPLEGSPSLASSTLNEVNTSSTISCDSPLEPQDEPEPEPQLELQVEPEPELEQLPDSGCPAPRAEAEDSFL
Sequence of Serine/threonine-protein kinase PknB (Mycobacterium tuberculosis) (P9WI81 whole entry, the tested form may be a part): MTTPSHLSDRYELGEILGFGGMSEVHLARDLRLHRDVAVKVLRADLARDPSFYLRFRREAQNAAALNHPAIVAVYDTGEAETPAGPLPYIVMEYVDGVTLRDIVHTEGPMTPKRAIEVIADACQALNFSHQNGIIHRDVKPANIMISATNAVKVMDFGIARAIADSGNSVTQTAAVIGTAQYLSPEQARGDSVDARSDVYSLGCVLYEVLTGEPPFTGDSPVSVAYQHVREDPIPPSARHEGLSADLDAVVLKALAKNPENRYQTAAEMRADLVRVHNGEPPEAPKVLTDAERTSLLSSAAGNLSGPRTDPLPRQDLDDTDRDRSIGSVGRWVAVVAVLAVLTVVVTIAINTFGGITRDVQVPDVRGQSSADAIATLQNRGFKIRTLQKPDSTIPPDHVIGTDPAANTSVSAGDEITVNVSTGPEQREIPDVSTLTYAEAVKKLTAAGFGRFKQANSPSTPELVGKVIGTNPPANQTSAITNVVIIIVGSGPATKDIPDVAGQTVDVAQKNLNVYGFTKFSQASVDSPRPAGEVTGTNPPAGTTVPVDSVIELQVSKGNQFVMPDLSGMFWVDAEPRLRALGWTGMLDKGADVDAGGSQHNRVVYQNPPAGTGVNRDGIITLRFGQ
Sequence of Tyrosine-protein kinase Yes (Homo sapiens) (P07947 2-543 limits assumed): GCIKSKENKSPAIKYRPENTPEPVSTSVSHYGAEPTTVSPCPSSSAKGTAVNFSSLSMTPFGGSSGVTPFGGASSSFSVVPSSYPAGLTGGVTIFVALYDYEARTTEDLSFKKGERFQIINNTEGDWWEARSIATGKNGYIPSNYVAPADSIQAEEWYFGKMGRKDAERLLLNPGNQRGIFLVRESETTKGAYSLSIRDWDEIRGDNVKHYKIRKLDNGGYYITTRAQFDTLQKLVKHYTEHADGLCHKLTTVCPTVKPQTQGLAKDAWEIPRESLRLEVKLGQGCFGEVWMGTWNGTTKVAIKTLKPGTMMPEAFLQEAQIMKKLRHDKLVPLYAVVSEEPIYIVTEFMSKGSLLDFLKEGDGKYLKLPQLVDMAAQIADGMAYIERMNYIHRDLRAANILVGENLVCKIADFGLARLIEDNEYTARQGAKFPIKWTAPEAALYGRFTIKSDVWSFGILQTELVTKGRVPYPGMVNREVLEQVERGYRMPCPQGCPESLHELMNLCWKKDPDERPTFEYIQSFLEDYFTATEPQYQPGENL
Sequence of Serine/threonine-protein kinase Nek7 (Homo sapiens) (Q8TDX7 whole entry, looked up, the tested form may be a part): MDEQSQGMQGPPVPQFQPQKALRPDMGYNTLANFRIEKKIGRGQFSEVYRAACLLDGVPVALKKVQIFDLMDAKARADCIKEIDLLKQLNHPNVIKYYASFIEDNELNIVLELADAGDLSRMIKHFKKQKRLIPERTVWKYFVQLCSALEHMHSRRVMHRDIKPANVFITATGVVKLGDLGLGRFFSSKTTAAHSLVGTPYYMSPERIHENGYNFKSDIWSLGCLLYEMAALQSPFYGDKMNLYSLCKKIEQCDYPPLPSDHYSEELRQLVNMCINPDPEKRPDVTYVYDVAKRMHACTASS
Sequence of Serine/threonine-protein kinase LATS1 (Homo sapiens) (O95835 whole entry, the tested form may be a part): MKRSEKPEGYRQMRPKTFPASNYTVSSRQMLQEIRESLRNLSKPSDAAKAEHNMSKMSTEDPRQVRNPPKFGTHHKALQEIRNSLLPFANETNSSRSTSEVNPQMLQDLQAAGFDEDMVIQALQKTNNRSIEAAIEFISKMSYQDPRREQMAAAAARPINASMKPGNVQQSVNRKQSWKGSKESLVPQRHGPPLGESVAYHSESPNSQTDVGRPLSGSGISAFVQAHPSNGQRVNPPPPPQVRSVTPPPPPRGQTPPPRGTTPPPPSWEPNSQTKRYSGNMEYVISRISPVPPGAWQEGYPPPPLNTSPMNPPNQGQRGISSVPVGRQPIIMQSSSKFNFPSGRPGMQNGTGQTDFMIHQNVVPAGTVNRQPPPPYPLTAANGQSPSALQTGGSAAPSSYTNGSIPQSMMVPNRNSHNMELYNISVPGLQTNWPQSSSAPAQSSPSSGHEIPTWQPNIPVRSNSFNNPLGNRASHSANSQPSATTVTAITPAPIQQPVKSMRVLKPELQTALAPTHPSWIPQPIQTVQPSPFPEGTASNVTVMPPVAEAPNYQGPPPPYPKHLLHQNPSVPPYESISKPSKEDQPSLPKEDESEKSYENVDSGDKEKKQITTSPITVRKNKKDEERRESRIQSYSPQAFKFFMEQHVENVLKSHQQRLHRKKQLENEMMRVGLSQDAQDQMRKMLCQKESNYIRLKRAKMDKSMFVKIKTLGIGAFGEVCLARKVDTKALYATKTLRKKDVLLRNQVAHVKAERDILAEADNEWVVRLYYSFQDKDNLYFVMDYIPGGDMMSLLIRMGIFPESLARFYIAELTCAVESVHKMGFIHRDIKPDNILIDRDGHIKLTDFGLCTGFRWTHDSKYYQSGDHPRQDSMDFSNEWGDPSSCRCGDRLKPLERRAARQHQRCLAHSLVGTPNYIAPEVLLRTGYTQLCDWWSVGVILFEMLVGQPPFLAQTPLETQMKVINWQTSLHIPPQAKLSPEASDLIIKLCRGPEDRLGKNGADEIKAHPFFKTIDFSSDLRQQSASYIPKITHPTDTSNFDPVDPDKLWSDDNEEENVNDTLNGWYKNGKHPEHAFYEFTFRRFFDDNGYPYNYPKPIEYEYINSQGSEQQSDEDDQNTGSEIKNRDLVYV
Sequence of Dual specificity mitogen-activated protein kinase kinase 7 (Homo sapiens) (O14733 whole entry, the tested form may be a part): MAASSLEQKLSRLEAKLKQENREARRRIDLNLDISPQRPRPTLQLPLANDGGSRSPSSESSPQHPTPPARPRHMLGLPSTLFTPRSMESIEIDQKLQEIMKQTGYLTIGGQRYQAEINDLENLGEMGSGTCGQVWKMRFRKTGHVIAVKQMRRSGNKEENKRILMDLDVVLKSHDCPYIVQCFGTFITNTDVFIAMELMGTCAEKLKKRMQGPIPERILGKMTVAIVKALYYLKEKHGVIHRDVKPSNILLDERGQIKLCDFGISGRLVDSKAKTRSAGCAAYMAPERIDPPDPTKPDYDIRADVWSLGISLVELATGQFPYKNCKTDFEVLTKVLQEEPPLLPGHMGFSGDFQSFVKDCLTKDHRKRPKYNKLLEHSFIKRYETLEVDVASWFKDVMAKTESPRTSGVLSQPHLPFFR
Sequence of Serine/threonine-protein kinase RIO1 (Homo sapiens) (Q9BRS2 whole entry, the tested form may be a part): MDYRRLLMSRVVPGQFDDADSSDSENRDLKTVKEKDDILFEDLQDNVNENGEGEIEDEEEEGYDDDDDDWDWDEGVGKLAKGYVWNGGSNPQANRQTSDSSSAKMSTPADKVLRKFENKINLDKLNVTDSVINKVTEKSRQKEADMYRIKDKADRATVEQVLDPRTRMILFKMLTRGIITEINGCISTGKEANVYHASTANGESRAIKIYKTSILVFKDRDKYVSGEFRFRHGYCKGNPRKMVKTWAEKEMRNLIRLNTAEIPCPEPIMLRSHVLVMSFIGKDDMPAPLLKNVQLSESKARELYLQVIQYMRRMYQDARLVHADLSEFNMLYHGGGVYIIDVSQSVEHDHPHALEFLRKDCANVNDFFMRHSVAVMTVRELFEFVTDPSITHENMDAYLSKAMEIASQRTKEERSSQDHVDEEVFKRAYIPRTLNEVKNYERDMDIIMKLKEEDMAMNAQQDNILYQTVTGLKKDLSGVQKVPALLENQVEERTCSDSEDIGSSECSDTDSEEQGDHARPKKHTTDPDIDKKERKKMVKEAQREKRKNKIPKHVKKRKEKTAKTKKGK

Take `COc1ccc(-c2cc3c(N[C@@H]4CC[C@](C)(N)C4(C)C)c(C(N)=O)cnn3c2)cn1`: the Activity turned out to be 100% in test [1]; 55% in test [2]; 69% in test [3]; 71% in [4]; 90% in [5]; 98% in [6]. The Activity worked out at 99% in [7]; 100% in test [8]; 98% in test [9]; 96% in [10]; 100% in [11]; 100% in test [12]. Moreover, the Activity was found to be 100% in [13]; 24% in test [14]; 64% in [15]; 100% in test [16]; 99% in [17]; 94% in test [18]. Besides, the Activity in test [19] was found to be 46%; in test [20], 100%; in test [21], 100%; in test [22], 100%; in test [23], 100%; in [24], 100%.
For the molecule `CC1(C)[C@H](Nc2c(C(N)=O)cnn3cc(-c4ccccc4)cc23)CC[C@]1(C)N`, the Activity was determined as 100% in test [1]; 100% in test [2]; 14% in test [3]; 100% in test [4]; 91% in test [5]; 64% in test [6]. For the same molecule, the Activity came out at 76% in test [7]; 100% in test [8]; 100% in [9]; 100% in test [10]; 90% in test [11]; 100% in test [12]. Besides, the Activity in test [13] stood at 100%; in test [14] it was 17%; in test [15], 19%; in test [16], 93%; in test [17] it was 67%; in [18], 89%. Besides, the Activity in test [19] worked out at 14%; in test [20] it was 100%; in test [21] it was 66%; in test [22], 100%; in test [23], 81%; in [24] it was 100%.
